# Source: ChEMBL document CHEMBL5247585, “Design, synthesis, and evaluation of 4(1H)-quinolinone and urea derivatives as KRASG12C inhibitors with potent antitumor activity against KRAS-mutant non-small cell lung cancer” (Eur J Med Chem, 2022)
# Active and inactive are the calls of the source. The calls are words filed in the database; no cut-off is given here.
# Experiments:
# NCI-H358 = assay: Antiproliferative activity against human NCI-H358 cells harboring KRAS G12C mutant assessed as reduction in cell viability incubated for 72 hrs by MTT assay; type: functional, cell-based; details: NCI-H358, 72 h
# NCI-H23 = assay: Antiproliferative activity against human NCI-H23 cells harboring KRAS G12C mutant assessed as reduction in cell viability incubated for 72 hrs by MTT assay; type: functional, cell-based; details: NCI-H23, 72 h
# A549 = assay: Antiproliferative activity against human A549 cells harboring KRAS G12S mutant assessed as reduction in cell viability incubated for 72 hrs by MTT assay; type: functional, cell-based; details: A549, 72 h
# NCI-H2228 = assay: Antiproliferative activity against human NCI-H2228 cells harboring wild type KRAS assessed as reduction in cell viability incubated for 72 hrs by MTT assay; type: functional, cell-based; details: NCI-H2228, 72 h
# [1] = Selectivity index, ratio of IC50 for human A549 cells harboring KRAS G12S mutant to IC50 for human NCI-H358 cells harboring KRAS G12C mutant; type: functional
# [2] = Selectivity index, ratio of IC50 for human NCI-H2228 cells harboring wild type KRAS to IC50 for human NCI-H358 cells harboring KRAS G12C mutant; type: functional
# [3] = Selectivity index, ratio of IC50 for human A549 cells harboring KRAS G12S mutant to IC50 for human NCI-H23 cells harboring KRAS G12C mutant; type: functional
# [4] = Selectivity index, ratio of IC50 for human NCI-H2228 cells harboring wild type KRAS to IC50 for human NCI-H23 cells harboring KRAS G12C mutant; type: functional
# [5] = system: GTPase KRas (Homo sapiens), P01116 [G12C]; assay: Covalent binding affinity to 6His tagged GDP bound human KRAS G12C mutant (1 to 169 residues) expressed in Escherichia coli BL21 (DE3) cells at 200 uM incubated for 24 hrs by LC-MS /MS analysis
# [6] = target: GTPase KRas (Homo sapiens) (UniProt P01116); assay: Covalent binding affinity to 6his tagged GDP bound human wildtype KRAS expressed in Escherichia coli BL21 (DE3) cells at 200 uM incubated for 24 hrs by LC-MS/MS analysis
# [7] = system: GTPase KRas (Homo sapiens), P01116 [G12C]; assay: (§1) Inhibition of 6His tagged Mant-GDP loaded human KRAS G12C mutant (1 to 169 residues) expressed in Escherichia coli BL21 (DE3) cells assessed as inhibition of SOS1-mediated nucleotide exchange at 10 uM preincubated with compound for 1 hrs followed by addition of GTP and SOS1 protein and measured every 90 sec for 2 hrs by fluorescence based assay; details: time 3.0 hrs
# [8] = system: GTPase KRas (Homo sapiens), P01116 [G12C]; assay: as §1, with “[…]” for “SOS1-mediated”, “EDTA” for “SOS1 protein”; details: time 3.0 hrs
# SK-LU-1 = assay: Antiproliferative activity against human SK-LU-1 cells harboring KRAS G12D mutant assessed as reduction in cell viability incubated for 72 hrs by MTT assay; type: functional, cell-based; details: SK-LU-1, 72 h
# NCI-H441 = assay: Antiproliferative activity against human NCI-H441 cells harboring KRAS G12V mutant assessed as reduction in cell viability incubated for 72 hrs by MTT assay; type: functional, cell-based; details: NCI-H441, 72 h
# [9] = Cytotoxicity against human MRC5 cells assessed as reduction in cell viability incubated for 72 hrs by MTT assay; type: toxicity, cell-based
Structure (SMILES),IC50 (NCI-H358) [µM],IC50 (NCI-H23) [µM],IC50 (A549) [µM],IC50 (NCI-H2228) [µM],Ratio IC50 [1],Ratio IC50 [2],Ratio IC50 [3],Ratio IC50 [4],Activity [5],Activity [6],inhibition [7],inhibition [8],IC50 (SK-LU-1) [µM],IC50 (NCI-H441) [µM],IC50 at 72 h [9] [µM]
C=CC(=O)NC1CCN(C(=O)c2cc(=O)c3cc(Cl)c(I)cc3[nH]2)CC1,19.2,35.5,22.8,31.6,,,,,,,,,,,
O=C(Nc1ccc(Cl)cc1)NC1CCN(C(=O)CCl)CC1,3.8,5.1,17.5,14.1,3,3,3,3,Active,inactive,Active,inactive,,,
O=C(Nc1ccc(Cl)c(C(F)(F)F)c1)NC1CCN(C(=O)CCl)CC1,3.1,2.3,8,10.6,,,,,Active,inactive,Active,inactive,,,
C=CC(=O)N1CC[C@@H](NC(=O)c2cc(=O)c3cc(Cl)c(I)cc3[nH]2)C1,10,11.6,20.3,24.6,,,,,,,,,,,
C=CC(=O)N1CC[C@@H](NC(=O)Nc2ccc(Cl)c(Cl)c2)C1,45.5,41.4,> 100,61.9,,,,,,,,,,,
O=C(CCl)NC1CCN(C(=O)c2cc(=O)c3cc(Cl)c(I)cc3[nH]2)CC1,4.5,2.7,9.8,8.6,2,2,2,2,,,,,,,
C=CC(=O)N1CC[C@H](NC(=O)Nc2ccc(Cl)c(Cl)c2)C1,34.2,40.8,> 100,65.3,,,,,,,,,,,
C=CS(=O)(=O)NC1CCN(C(=O)CNc2cc(I)c(Cl)cc2OC)CC1,4.4,3,5.2,7.2,,,,,,,,,22.8,21.5,10.3
C=CC(=O)N1CCC(NC(=O)Nc2ccc(Cl)cc2)CC1,> 100,> 100,> 100,> 100,,,,,,,,,,,
O=C(Nc1ccc(Cl)c(-c2ccccc2F)c1)NC1CCN(C(=O)CCl)CC1,37.7,42.8,> 100,34.9,,,,,,,,,,,
O=C(NC1CCN(C(=O)CCl)C1)c1cc(=O)c2cc(Cl)c(I)cc2[nH]1 (centres undefined),5.4,3.8,10.2,8.2,,,,,,,,,,,
C=CC(=O)N1CCC(NC(=O)Nc2ccc(Cl)c(C(F)(F)F)c2)CC1,> 100,> 100,> 100,45.8,,,,,,,,,,,
O=C(Nc1ccc(Cl)c(C(F)(F)F)c1)N[C@@H]1CCN(C(=O)CCl)C1,4.5,4.6,26.1,4,,,,,,,,,,,
C=CC(=O)N1CC[C@@H](NC(=O)Nc2ccc(Cl)c(C(F)(F)F)c2)C1,38.1,29.7,> 100,58,,,,,,,,,,,
C=CC(=O)NC1CCN(C(=O)c2cc(=O)c3ccccc3[nH]2)CC1,44.8,> 100,> 100,> 100,,,,,,,,,,,
